Data: article PMC10959927, “Platinum iodido drugs show potential anti-tumor activity, affecting cancer cell metabolism and inducing ROS and senescence in gastrointestinal cancer cells” (Communications Biology, 2024)
Where “and” joins values, the source holds several entries; their conditions need not be identical. Identical values can stand only once.

Legend:
Type in all cases: cell-based, human
AGS cells [1] = assay: Immunofluorescence of γ-H2AX and 53BP1 foci; conditions: for foci/cell, share of cells in class (Suma 100) / foci/cell, number of cells in class: Fig. 3B; for foci/cell, number of cells in class: cell count
Method: (§1) Cells (7 × 10^4) were seeded on 20 mm coverslips. […] Coverslips were incubated for 1 h with the primary antibody (Cell Signaling: H2AX Ser139 (#2595) and 53BP1 (#4937)) at room temperature, followed by a 1 h incubation with the appropriate secondary antibody. DNA was stained with DAPI. Fluorescence microscopy was performed using a NIKON Eclipse 90i. The image analysis was performed using the software program Nikon NIS-Elements and Image J.

PANC1 cells [2] = assay: Immunofluorescence of γ-H2AX and 53BP1 foci; conditions: for foci/cell, share of cells in class (Suma 100) / foci/cell, number of cells in class: PANC1, Fig. 3B; for foci/cell, number of cells in class: cell count
Method: as §1

AGS cells [3] = assay: SA-β-Gal histochemical staining; conditions: Fig. S4A
Method: SA-β-Gal activity was measured following two different approaches. (i) AGS, MKN45 and PANC1 cells (5 × 10^4) were seeded in 24-multiwell dishes and incubated overnight. […] For flow cytometry cell senescence detection, cells were tripsinized, fixed for 15 min with PFA 4% and stained with the CellEvent Senescense Green Flow Cytometry Assay Kit (C10840, Invitrogen) according to manufacturer’s instructions. CellEvent Senescense Green Probe was used at a 1:500 dilution and fluorescence was detected using the filter (Ex488nm/Em530/30) BL1 with a 4-laser Attune NxT Acoustic Cytometer (Thermo Fisher Scientific). […] After 3 h, the treatments were removed, new supplemented medium was added, and cells were incubated for an additional 24 h. Finally, SA-β-Gal staining was performed using the Senescence Cells Histochemical Staining Kit (CS0030-1KT) according to the manufacturer’s instructions.

AGS cells [4] = assay: Western blotting (p-p53, p-JNK, p-p38, p-ERK, p-CHK1/2, Mcl1, BID, BAX); conditions: for fold change p-ERK vs Tubulin / fold change p-JNK vs Tubulin / fold change p-p38 vs Tubulin / fold change p-p53 vs Tubulin: Fig. 4A, replicate values; for fold change BID full length vs Tubulin / fold change MCL1 vs Tubulin: Fig. S3B
Method: (§2) Total protein extracts were obtained by adding the lysis buffer: 25 mM HEPES pH 7.5, 0.3 M NaCl, 1.5 mM MgCl2, 0.2 mM EDTA, 0.5 mM DTT, 20 mM β-glicerophosphate, 0.1 mM Na3VO4, 0.1% triton X-100; in the presence of protease inhibitors. Twenty μg of protein per sample were loaded and resolved using 8%, 10% or 15% SDS-PAGE polyacrylamide gels, and then transferred onto PVDF membranes, followed by immunodetection using appropriate antibodies, purchased from Santa Cruz Technology: Mcl-1 (sc-819), Cell Signaling Technology: BIM, BID, BAX (#9942), p-p38 (1:2000, #4631), p-p53^ser15 (#9284), p-ERK1/2 (1:2000, #9106), p-CHK1^ser345 and p-CHK2^ser19 (#9931), Promega Corporation-Spain: p-JNK (#V7932), or Sigma-Aldrich: α-tubulin (1:10000, #TP026). Unless indicated, all antibodies were diluted 1:1000. Secondary antibodies conjugated with horseradish peroxidase were purchased from BioRad, and chemiluminescence detection was performed using ECL (Santa Cruz Biotechnology).

PANC1 cells [5] = assay: as above; conditions: for fold change p-ERK vs Tubulin / fold change p-JNK vs Tubulin / fold change p-p38 vs Tubulin / fold change p-p53 vs Tubulin: PANC1, Fig. 4A, replicate values
Method: as §2

CC(C)[NH][Pt@SP3]([I])([I])[NH]C(C)C [I5, trans-[PtI2(isopropylamine)2]]
foci/cell, share of cells in class (Suma 100) (AGS cells [1]; class 16-30 foci/cell): 32.2835
foci/cell, number of cells in class (AGS cells [1]; class 16-30 foci/cell): 41
foci/cell, share of cells in class (Suma 100) (AGS cells [1]; class 31-45 foci/cell): 14.1732
foci/cell, number of cells in class (AGS cells [1]; class 31-45 foci/cell): 18
foci/cell, share of cells in class (Suma 100) (AGS cells [1]; class 46-60 foci/cell): 7.874
foci/cell, number of cells in class (AGS cells [1]; class 46-60 foci/cell): 10
foci/cell, share of cells in class (Suma 100) (AGS cells [1]; class <15 foci/cell): 37.0079
foci/cell, number of cells in class (AGS cells [1]; class <15 foci/cell): 47
foci/cell, share of cells in class (Suma 100) (AGS cells [1]; class >61 foci/cell): 8.661
foci/cell, number of cells in class (AGS cells [1]; class >61 foci/cell): 11
foci/cell: number of cells with 16-30 foci (AGS cells [1]; Fig. S4B, cell counts): 24
foci/cell: number of cells with 31-45 foci (AGS cells [1]; Fig. S4B, cell counts): 5
foci/cell: number of cells with 46-60 foci (AGS cells [1]; Fig. S4B, cell counts): 2
foci/cell: number of cells with <15 foci (AGS cells [1]; Fig. S4B, cell counts): 37
foci/cell: number of cells with >61 foci (AGS cells [1]; Fig. S4B, cell counts): 0
foci/cell: share of cells with 16-30 foci (Suma 100) (AGS cells [1]; Fig. S4B, share of N): 35.2941
foci/cell: share of cells with 31-45 foci (Suma 100) (AGS cells [1]; Fig. S4B, share of N): 7.353
foci/cell: share of cells with 46-60 foci (Suma 100) (AGS cells [1]; Fig. S4B, share of N): 2.941
foci/cell: share of cells with <15 foci (Suma 100) (AGS cells [1]; Fig. S4B, share of N): 54.4118
foci/cell: share of cells with >61 foci (Suma 100) (AGS cells [1]; Fig. S4B, share of N): 0
foci/cell: number of cells with 16-30 foci (PANC1 cells [2]; PANC1, Fig. S4B, cell counts): 11
foci/cell: number of cells with 31-45 foci (PANC1 cells [2]; PANC1, Fig. S4B, cell counts): 3
foci/cell: number of cells with 46-60 foci (PANC1 cells [2]; PANC1, Fig. S4B, cell counts): 1
foci/cell: number of cells with <15 foci (PANC1 cells [2]; PANC1, Fig. S4B, cell counts): 18
foci/cell: number of cells with >61 foci (PANC1 cells [2]; PANC1, Fig. S4B, cell counts): 0
foci/cell: share of cells with 16-30 foci (Suma 100) (PANC1 cells [2]; PANC1, Fig. S4B, share of N): 33.3333
foci/cell: share of cells with 31-45 foci (Suma 100) (PANC1 cells [2]; PANC1, Fig. S4B, share of N): 9.091
foci/cell: share of cells with 46-60 foci (Suma 100) (PANC1 cells [2]; PANC1, Fig. S4B, share of N): 3.0303
foci/cell: share of cells with <15 foci (Suma 100) (PANC1 cells [2]; PANC1, Fig. S4B, share of N): 54.5455
foci/cell: share of cells with >61 foci (Suma 100) (PANC1 cells [2]; PANC1, Fig. S4B, share of N): 0
foci/cell, share of cells in class (Suma 100) (PANC1 cells [2]; class 16-30 foci/cell): 26.9231
foci/cell, number of cells in class (PANC1 cells [2]; class 16-30 foci/cell): 7
foci/cell, share of cells in class (Suma 100) (PANC1 cells [2]; class 31-45 foci/cell): 26.9231
foci/cell, number of cells in class (PANC1 cells [2]; class 31-45 foci/cell): 7
foci/cell, share of cells in class (Suma 100) (PANC1 cells [2]; class 46-60 foci/cell): 15.3846
foci/cell, number of cells in class (PANC1 cells [2]; class 46-60 foci/cell): 4
foci/cell, share of cells in class (Suma 100) (PANC1 cells [2]; class <15 foci/cell): 3.846
foci/cell, number of cells in class (PANC1 cells [2]; class <15 foci/cell): 1
foci/cell, share of cells in class (Suma 100) (PANC1 cells [2]; class >61 foci/cell): 26.9231
foci/cell, number of cells in class (PANC1 cells [2]; class >61 foci/cell): 7
Fold change % Senescence (AGS cells [3]): 58.06% and 57.14% and 43.1%
activation of p53 (p-p53 western blot) (AGS cells [4]; IC50, 1, 3, 6 and 24 h): did not activate p53
phosphorylation of CHK1/2 (DDR pathway, western blot) (AGS cells [4]; IC50, 1, 3, 6 or 24 h): did not activate
fold change p-ERK vs Tubulin (AGS cells [4]; Time 1 h): 3.337 fold change and 2.237 fold change and 6.03 fold change
fold change p-JNK vs Tubulin (AGS cells [4]; Time 1 h): 3.178 fold change and 2.647 fold change and 2.394 fold change
fold change p-p38 vs Tubulin (AGS cells [4]; Time 1 h): 1.6079 fold change and 2.911 fold change and 3.19 fold change
fold change p-p53 vs Tubulin (AGS cells [4]; Time 1 h): 0.8674 fold change and 0.8424 fold change and 1.7105 fold change
fold change p-ERK vs Tubulin (AGS cells [4]; Time 3 h): 6.263 fold change and 7.52 fold change and 5.909 fold change
fold change p-JNK vs Tubulin (AGS cells [4]; Time 3 h): 3.912 fold change and 2.163 fold change and 1.799 fold change
fold change p-p38 vs Tubulin (AGS cells [4]; Time 3 h): 0.8627 fold change and 3.016 fold change and 3.496 fold change
fold change p-p53 vs Tubulin (AGS cells [4]; Time 3 h): 0.5433 fold change and 0.6274 fold change and 1.359 fold change
fold change p-ERK vs Tubulin (AGS cells [4]; Time 6 h): 3.858 fold change and 7.71 fold change and 6.1 fold change
fold change p-JNK vs Tubulin (AGS cells [4]; Time 6 h): 2.706 fold change and 2.4308 fold change and 2.197 fold change
fold change p-p38 vs Tubulin (AGS cells [4]; Time 6 h): 1.573 fold change and 3.845 fold change and 3.365 fold change
fold change p-p53 vs Tubulin (AGS cells [4]; Time 6 h): 0.4994 fold change and 0.627 fold change and 1.555 fold change
fold change p-ERK vs Tubulin (AGS cells [4]; Time 24 h): 3.8691 fold change and 7.1 fold change and 5.002 fold change
fold change p-JNK vs Tubulin (AGS cells [4]; Time 24 h): 3.2721 fold change and 2.291 fold change and 2.816 fold change
fold change p-p38 vs Tubulin (AGS cells [4]; Time 24 h): 3.758 fold change and 3.606 fold change and 2.16 fold change
fold change p-p53 vs Tubulin (AGS cells [4]; Time 24 h): 0.7787 fold change and 0.8882 fold change and 1.672 fold change
fold change BID full length vs Tubulin (AGS cells [4]; time 1 h): 0.978 fold change and 1.383 fold change and 0.822 fold change
fold change BID full length vs Tubulin (AGS cells [4]; time 3 h): 0.826 fold change and 0.919 fold change and 0.851 fold change
fold change MCL1 vs Tubulin (AGS cells [4]; time 3 h): 0.354 fold change and 0.557 fold change and 0.657 fold change
fold change BID full length vs Tubulin (AGS cells [4]; time 6 h): 0.842 fold change and 0.933 fold change and 0.854 fold change
fold change MCL1 vs Tubulin (AGS cells [4]; time 24 h): 1.039 fold change and 1.002 fold change and 0.903 fold change
activation of p53 (p-p53 western blot) (PANC1 cells [5]; PANC1, IC50, 1, 3, 6 and 24 h): did not activate p53
phosphorylation of CHK1/2 (DDR pathway, western blot) (PANC1 cells [5]; PANC1, IC50, 1, 3, 6 or 24 h): did not activate
fold change BAX vs Tubulin (PANC1 cells [5]; PANC1, time 1 h, Fig. S3B): 1.558 fold change and 0.8186 fold change and 1.264 fold change
fold change BAX vs Tubulin (PANC1 cells [5]; PANC1, time 3 h, Fig. S3B): 1.103 fold change and 1.1737 fold change and 1.2 fold change
fold change BAX vs Tubulin (PANC1 cells [5]; PANC1, time 6 h, Fig. S3B): 1.097 fold change and 1.226 fold change and 1.154 fold change
fold change BAX vs Tubulin (PANC1 cells [5]; PANC1, time 24 h, Fig. S3B): 1.153 fold change and 1.646 fold change and 1.378 fold change
fold change BID full length vs Tubulin (PANC1 cells [5]; PANC1, time 24 h, Fig. S3B): 0.5478 fold change and 0.965 fold change and 0.596 fold change
fold change MCL1 vs Tubulin (PANC1 cells [5]; PANC1, time 24 h, Fig. S3B): 1.638 fold change and 3.054 fold change and 2.481 fold change
fold change p-ERK vs Tubulin (PANC1 cells [5]; Time 1 h): 5.052 fold change and 7.4391 fold change and 5.41 fold change
fold change p-JNK vs Tubulin (PANC1 cells [5]; Time 1 h): 2.895 fold change and 2.7686 fold change and 4.719 fold change
fold change p-p38 vs Tubulin (PANC1 cells [5]; Time 1 h): 2.229 fold change and 1.109 fold change and 1.075 fold change
fold change p-p53 vs Tubulin (PANC1 cells [5]; Time 1 h): 0.74 fold change and 1.11 fold change and 0.95 fold change
fold change p-ERK vs Tubulin (PANC1 cells [5]; Time 3 h): 4.573 fold change and 11.3646 fold change and 8.3 fold change
fold change p-JNK vs Tubulin (PANC1 cells [5]; Time 3 h): 1.5726 fold change and 2.305 fold change and 1.813 fold change
fold change p-p38 vs Tubulin (PANC1 cells [5]; Time 3 h): 2.01 fold change and 1.474 fold change and 1.299 fold change
fold change p-p53 vs Tubulin (PANC1 cells [5]; Time 3 h): 0.37 fold change and 1.05 fold change and 0.6 fold change
fold change p-ERK vs Tubulin (PANC1 cells [5]; Time 6 h): 3.1087 fold change and 13.4172 fold change and 7.72 fold change
fold change p-JNK vs Tubulin (PANC1 cells [5]; Time 6 h): 2.264 fold change and 2.75 fold change and 2.02 fold change
fold change p-p38 vs Tubulin (PANC1 cells [5]; Time 6 h): 1.737 fold change and 1.3292 fold change and 1.51 fold change
fold change p-p53 vs Tubulin (PANC1 cells [5]; Time 6 h): 0.46 fold change and 1.28 fold change and 0.68 fold change
fold change p-ERK vs Tubulin (PANC1 cells [5]; Time 24 h): 0.9081 fold change and 11.3435 fold change and 3.15 fold change
fold change p-JNK vs Tubulin (PANC1 cells [5]; Time 24 h): 0.7671 fold change and 1.164 fold change and 1.094 fold change
fold change p-p38 vs Tubulin (PANC1 cells [5]; Time 24 h): 1.276 fold change and 1.422 fold change and 1.33 fold change
fold change p-p53 vs Tubulin (PANC1 cells [5]; Time 24 h): 0.81 fold change and 1.22 fold change and 0.52 fold change
